Test results reported in the SangsterLogP compilation.

test: method code SF-RC, from DOI: 10.1021/jf60225a019, PMID: 546944

Q: With CCOc1ccc(C(c2ccc(OCC)cc2)C(Cl)Cl)cc1 as the compound, how does the logP read?
A: 3.65

Q: Which logP does the source give for CCOc1ccc(C(c2ccc(OCC)cc2)C(C)(Cl)Cl)cc1 here?
A: 3.64

Q: For CCOc1ccc(C(c2ccc(OCC)cc2)C(C)[N+](=O)[O-])cc1 (stereo unspecified), which logP is on record?
A: 3.45

Q: With CCOc1ccc(C(c2ccc(C)cc2)C(C)[N+](=O)[O-])cc1 (stereo unspecified) as the compound, how does the logP read?
A: 3.46

Q: With CCOc1ccc(C(c2ccc(C)cc2)C(C)Cl)cc1 (stereo unspecified) as the compound, how does the logP read?
A: 3.19

Q: With CCOc1ccc(C(c2ccc(OCC)cc2)C(C)Cl)cc1 (stereo unspecified) as the compound, how does the logP read?
A: 3.58

Q: For CCOc1ccc(C(c2ccc(C)cc2)C(C)C)cc1 (stereo unspecified), which logP is on record?
A: 3.55

Q: Which logP does the source give for CCOc1ccc(C(c2ccc(OCC)cc2)C(C)(C)C)cc1 here?
A: 3.16

Q: With CCOc1ccc(C(c2ccc(OCC)cc2)C(C)C)cc1 as the compound, how does the logP read?
A: 3.61

Q: With COc1ccc(C(c2ccc(OC)cc2)C(C)(C)C)cc1 as the compound, how does the logP read?
A: 3.57

Q: For CCOc1ccc(C(c2ccc(OCC)cc2)C(C)(C)Cl)cc1, which logP is on record?
A: 3.25
